Experimental data reported in patent US20020137929A1, “1 - (3-heterocyclylphenyl) isothiourea, -isourea, -guanidine and -amidine herbicidal agents” (Intellectual Property Department, BASF Aktiengesellschaft, priority 1998, published 2002).

Key:
[1] = tested on: AMBEL (Ragweed, Common); experiment: Postemergence herbicidal evaluation; format: in vivo, Ambrosia artemisifolia; conditions: postemergence
Summary of the method: (§1)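 Young plants, roughly two weeks from seeding, receive the active ingredient as a sprayed dispersion (acetone/water 50/50, 0.5% TWEEN 20) at 40 psi. Doses span about 0.0156 to 0.500 kg/ha. A visual score from 0 to 9 compares treated with control plants four to five weeks on.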

[2] = tested on: CASOB (Sicklepod); experiment: Postemergence herbicidal evaluation; format: in vivo, Cassia obtusifolia; conditions: postemergence
Summary of the method: as §1

[3] = tested on: GALAP (Galium); experiment: Postemergence herbicidal evaluation; format: in vivo, Galium aparine; conditions: postemergence
Summary of the method: as §1

[4] = tested on: GLXMAW (Soybean, Williams); experiment: Postemergence herbicidal evaluation; format: in vivo, Glycine max, (L.) Merr. cv Williams; conditions: postemergence
Summary of the method: as §1

[5] = tested on: TRZAWR (Wheat, Winter, cv Riband); experiment: Postemergence herbicidal evaluation; format: in vivo, Triticum aestivum; conditions: postemergence
Summary of the method: as §1

[6] = tested on: GALAP (Galium); experiment: Preemergence herbicidal evaluation; format: in vivo, Galium aparine; conditions: preemergence, rated 4-5 weeks after treatment, 0-9 scale
Summary of the method: (§2)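 Herbicidal effect scored visually, 0-9, at 4 to 5 weeks against a control; compound applied preemergence by aqueous acetone spray to seeded soil at about 0.0156 to 0.500 kg/ha.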

[7] = tested on: SETVI (Foxtail, Green); experiment: Preemergence herbicidal evaluation; format: in vivo, Setaria viridis; conditions: preemergence, rated 4-5 weeks after treatment, 0-9 scale
Summary of the method: as §2

[8] = tested on: ORYSAT (Rice, Tebonnet); experiment: Preemergence herbicidal evaluation; format: in vivo, Oryza sativa, (L.) Tebonnet; conditions: preemergence, rated 4-5 weeks after treatment, 0-9 scale
Summary of the method: as §2

[9] = tested on: ECHORC (Watergrass (Calif.)); experiment: Preemergence weed control under flooded paddy conditions; format: in vivo, Echinochloa oryzoides; conditions: rated 3-4 weeks after treatment
Summary of the method: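 Ratings on a 0-9 visual scale cover stand, vigor, malformation, size, chlorosis and overall appearance relative to a control, taken three to four weeks post-treatment. Application was into flood water over freshly sown silt loam at roughly 0.0313 to 0.500 kg/ha.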

[10] = tested on: CYPSE (Flatsedge); experiment: as above; format: in vivo, Cyperus serotinus; conditions: rated 3-4 weeks after treatment
Summary of the method: (§3)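 Flooded-pot preemergence screen with silt loam and seeds in the upper 0.5 cm. Dose about 0.0313 to 0.500 kg/ha, delivered into flood water; visual 0-9 score after 3 to 4 weeks.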

[11] = tested on: SAGPY (Arrowhead (Pygmaea)); experiment: as above; format: in vivo, Sagittaria pygmaea; conditions: rated 3-4 weeks after treatment
Summary of the method: as §3

[12] = tested on: ECHORC (Watergrass (Calif.)); experiment: Postemergence weed control under flooded paddy conditions; format: in vivo, Echinochloa oryzoides; conditions: postemergence weeds, rated 3 to 4 weeks after treatment
Summary of the method: (§4)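 Injury ratings (0–9 scale covering stand, vigor, malformation, size, chlorosis and overall appearance versus control) were made three to four weeks after treatment. Test material, about 0.0313 to 0.500 kg/ha a.i. in 50/50 v/v aqueous/acetone, was added to flood water 1.5 to 3 cm deep over 3 to 5 cm weeds and 1.5 to 2.5 leaf rice.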

[13] = tested on: SAGPY (Arrowhead (Pygmaea)); experiment: as above; format: in vivo, Sagittaria pygmaea; conditions: postemergence weeds, rated 3 to 4 weeks after treatment
Summary of the method: as §4

## COC(=O)C1(N2C(=O)CSC2=Nc2cc(-n3c(=O)cc(C(F)(F)F)n(C)c3=O)c(F)cc2Cl)CCCCC1 [Compound 81, Methyl 1-{2-{{2-chloro-5-[3,6-dihydro-3-methyl-2,6-dioxo-4-(trifluoromethyl)-1(2H)-pyrimidinyl]-4-fluorophenyl}imino}-4-oxo-3-thiazolidinyl}-cyclohexanecarboxylate]
[1]; rate 0.0158 kg/ha
  AMBEL herbicidal rating: 9.0
[1]; rate 0.0315 kg/ha
  AMBEL herbicidal rating: 9.0
[1]; rate 0.0630 kg/ha
  AMBEL herbicidal rating: 9.0
[2]; rate 0.0158 kg/ha
  CASOB herbicidal rating: 1.0
[2]; rate 0.0315 kg/ha
  CASOB herbicidal rating: 2.0
[2]; rate 0.0630 kg/ha
  CASOB herbicidal rating: 5.0
[3]; rate 0.0158 kg/ha
  GALAP herbicidal rating: 1.0
[3]; rate 0.0315 kg/ha
  GALAP herbicidal rating: 5.0
[3]; rate 0.0630 kg/ha
  GALAP herbicidal rating: 4.0
[4]; rate 0.0158 kg/ha
  GLXMAW herbicidal rating: 6.5
[4]; rate 0.0315 kg/ha
  GLXMAW herbicidal rating: 6.5
[4]; rate 0.0630 kg/ha
  GLXMAW herbicidal rating: 6.5
[5]; rate 0.0158 kg/ha
  TRZAWR herbicidal rating: 4.5
[5]; rate 0.0315 kg/ha
  TRZAWR herbicidal rating: 5.0
[5]; rate 0.0630 kg/ha
  TRZAWR herbicidal rating: 6.0
[6]; 0.0313 kg/ha
  GALAP rating: 0.0
[6]; 0.0625 kg/ha
  GALAP rating: 0.0
[6]; 0.1250 kg/ha
  GALAP rating: 0.0
[6]; 0.2500 kg/ha
  GALAP rating: 1.0
[7]; 0.0313 kg/ha
  SETVI rating: 0.0
[7]; 0.0625 kg/ha
  SETVI rating: 1.0
[7]; 0.1250 kg/ha
  SETVI rating: 0.0
[7]; 0.2500 kg/ha
  SETVI rating: 3.0
[8]; 0.0313 kg/ha
  ORYSAT rating: 0.0
[8]; 0.0625 kg/ha
  ORYSAT rating: 0.0
[8]; 0.1250 kg/ha
  ORYSAT rating: 1.0
[8]; 0.2500 kg/ha
  ORYSAT rating: 1.0
[9]; 0.0625 kg/ha
  ECHORC herbicidal effect rating: 0.0
[9]; 0.1250 kg/ha
  ECHORC herbicidal effect rating: 3.0
[9]; 0.2500 kg/ha
  ECHORC herbicidal effect rating: 3.0
[10]; 0.0625 kg/ha
  CYPSE herbicidal effect rating: 0.0
[10]; 0.1250 kg/ha
  CYPSE herbicidal effect rating: 0.0
[10]; 0.2500 kg/ha
  CYPSE herbicidal effect rating: 0.0
[11]; 0.0625 kg/ha
  SAGPY herbicidal effect rating: 0.0
[11]; 0.1250 kg/ha
  SAGPY herbicidal effect rating: 0.0
[11]; 0.2500 kg/ha
  SAGPY herbicidal effect rating: 0.0
[12]; Rate 0.0625 kg/ha
  Herbicidal rating ECHORC: 0.0
[12]; Rate 0.1250 kg/ha
  Herbicidal rating ECHORC: 3.0
[12]; Rate 0.2500 kg/ha
  Herbicidal rating ECHORC: 3.0
[13]; Rate 0.0625 kg/ha
  Herbicidal rating SAGPY: 0.0
[13]; Rate 0.1250 kg/ha
  Herbicidal rating SAGPY: 0.0
[13]; Rate 0.2500 kg/ha
  Herbicidal rating SAGPY: 0.0

## CCOC(=O)CN1C(=O)C(CC(=O)OCCF)SC1=Nc1cc(-n2c(=O)cc(C(F)(F)F)n(C)c2=O)c(F)cc1Cl (centres unmarked) [Compound 82, 2-{{2-Chloro-5-[3,6-dihydro-3-methyl-2,6-dioxo-4-(trifluoromethyl)-1(2H)-pyrimidinyl]-4-fluoro-phenyl}imino}-4-oxo-3,5-thiazolidinediacetic acid, 3-ethyl 2-fluoroethyl ester]
[1]; rate 0.0158 kg/ha
  AMBEL herbicidal rating: 9.0
[1]; rate 0.0315 kg/ha
  AMBEL herbicidal rating: 9.0
[1]; rate 0.0630 kg/ha
  AMBEL herbicidal rating: 9.0
[2]; rate 0.0158 kg/ha
  CASOB herbicidal rating: 9.0
[2]; rate 0.0315 kg/ha
  CASOB herbicidal rating: 9.0
[2]; rate 0.0630 kg/ha
  CASOB herbicidal rating: 9.0
[3]; rate 0.0158 kg/ha
  GALAP herbicidal rating: 4.0
[3]; rate 0.0315 kg/ha
  GALAP herbicidal rating: 9.0
[3]; rate 0.0630 kg/ha
  GALAP herbicidal rating: 9.0
[4]; rate 0.0158 kg/ha
  GLXMAW herbicidal rating: 8.5
[4]; rate 0.0315 kg/ha
  GLXMAW herbicidal rating: 9.0
[4]; rate 0.0630 kg/ha
  GLXMAW herbicidal rating: 9.0
[5]; rate 0.0158 kg/ha
  TRZAWR herbicidal rating: 7.5
[5]; rate 0.0315 kg/ha
  TRZAWR herbicidal rating: 7.5
[5]; rate 0.0630 kg/ha
  TRZAWR herbicidal rating: 8.5
[6]; 0.0156 kg/ha
  GALAP rating: 0.0
[6]; 0.0313 kg/ha
  GALAP rating: 0.0
[6]; 0.0625 kg/ha
  GALAP rating: 0.0
[6]; 0.1250 kg/ha
  GALAP rating: 9.0
[6]; 0.2500 kg/ha
  GALAP rating: 9.0
[7]; 0.0156 kg/ha
  SETVI rating: 0.0
[7]; 0.0313 kg/ha
  SETVI rating: 0.0
[7]; 0.0625 kg/ha
  SETVI rating: 7.0
[7]; 0.1250 kg/ha
  SETVI rating: 9.0
[7]; 0.2500 kg/ha
  SETVI rating: 9.0
[8]; 0.0156 kg/ha
  ORYSAT rating: 0.0
[8]; 0.0313 kg/ha
  ORYSAT rating: 0.0
[8]; 0.0625 kg/ha
  ORYSAT rating: 0.0
[8]; 0.1250 kg/ha
  ORYSAT rating: 0.0
[8]; 0.2500 kg/ha
  ORYSAT rating: 0.0
[9]; 0.0313 kg/ha
  ECHORC herbicidal effect rating: 4.0
[9]; 0.0625 kg/ha
  ECHORC herbicidal effect rating: 4.0
[9]; 0.1250 kg/ha
  ECHORC herbicidal effect rating: 6.0
[9]; 0.2500 kg/ha
  ECHORC herbicidal effect rating: 9.0
[10]; 0.0313 kg/ha
  CYPSE herbicidal effect rating: 0.0
[10]; 0.0625 kg/ha
  CYPSE herbicidal effect rating: 0.0
[10]; 0.1250 kg/ha
  CYPSE herbicidal effect rating: 2.0
[10]; 0.2500 kg/ha
  CYPSE herbicidal effect rating: 4.0
[11]; 0.0313 kg/ha
  SAGPY herbicidal effect rating: 4.0
[11]; 0.0625 kg/ha
  SAGPY herbicidal effect rating: 4.0
[11]; 0.1250 kg/ha
  SAGPY herbicidal effect rating: 4.0
[11]; 0.2500 kg/ha
  SAGPY herbicidal effect rating: 7.0
[12]; Rate 0.0313 kg/ha
  Herbicidal rating ECHORC: 4.0
[12]; Rate 0.0625 kg/ha
  Herbicidal rating ECHORC: 4.0
[12]; Rate 0.1250 kg/ha
  Herbicidal rating ECHORC: 6.0
[12]; Rate 0.2500 kg/ha
  Herbicidal rating ECHORC: 9.0
[13]; Rate 0.0313 kg/ha
  Herbicidal rating SAGPY: 4.0
[13]; Rate 0.0625 kg/ha
  Herbicidal rating SAGPY: 4.0
[13]; Rate 0.1250 kg/ha
  Herbicidal rating SAGPY: 4.0
[13]; Rate 0.2500 kg/ha
  Herbicidal rating SAGPY: 7.0
